Values quoted from earlier work as cited in patent US11497761B2, “Compositions for the treatment of metastatic cancer” (priority 2019, dated 2022).

What was measured:
[1] = tested on: Ehrlich ascites tumor cells; conditions: in vitro, Kato et al. 1971; cited from earlier work
PGC-1α = conditions: cultured C2C12 myotubes; cited from earlier work
[2] = Kato et al. 1971; cited from earlier work

Molecule | anticancer activity [1] | also measured
CCCCCCCCCCCCCCCC(=O)O [Hexadecanoic, Hexadecanoic acid] | most active | 
CCCCCCCCCCCC(=O)O [lauric acid, dodecanoic acid] |  | expression of PGC-1α (PGC-1α): did not alter expression
CCCCCCCC/C=C\CCCCCCCC(=O)O [octadecenoic, octadecenoic acid] |  | solubility [2]: poorly soluble
CCCCCCCCCCCCCCCCCC(=O)O [octadeconoic, octadeconoic acid] | most active | 
lauric sucrose ester | only weak activity | 
octadecadienoic acid | most active | 
